Results: the supplement of paper PMC13380429

Assays:
Settings in all cases: 72 h
Caco-2 [1] = test: cell viability relative to DMSO; higher = less toxic
Calu-3 [2] = test: as above
HepG2 [3] = test: as above
U2OS [4] = test: as above
Vero E6 [5] = test: as above
Calu-3 [6] = test: relative viability EC50 (midpoint between 100% and the lowest measured viability); higher = less toxic
HepG2 [7] = test: as above
U2OS [8] = test: as above
Vero E6 [9] = test: as above
Caco-2 [10] = test: drug sensitivity score (DSS) for viability; higher = more toxic; extreme values may be limits of the assay
Calu-3 [11] = test: as above
HepG2 [12] = test: as above
U2OS [13] = test: as above
Vero E6 [14] = test: as above
Caco-2 [15] = test: relative viability EC50 (midpoint between 100% and the lowest measured viability); higher = less toxic

Structure (SMILES) | cell viability (Caco-2 [1]; 1 nM) | cell viability (Caco-2 [1]; 10 nM) | cell viability (Caco-2 [1]; 100 nM) | cell viability (Caco-2 [1]; 1000 nM) | cell viability (Caco-2 [1]; 10000 nM) | cell viability (Calu-3 [2]; 1 nM) | cell viability (Calu-3 [2]; 10 nM) | cell viability (Calu-3 [2]; 100 nM) | cell viability (Calu-3 [2]; 1000 nM) | cell viability (Calu-3 [2]; 10000 nM) | cell viability (HepG2 [3]; 1 nM) | cell viability (HepG2 [3]; 10 nM) | cell viability (HepG2 [3]; 100 nM) | cell viability (HepG2 [3]; 1000 nM) | cell viability (HepG2 [3]; 10000 nM) | cell viability (U2OS [4]; 1 nM) | cell viability (U2OS [4]; 10 nM) | cell viability (U2OS [4]; 100 nM) | cell viability (U2OS [4]; 1000 nM) | cell viability (U2OS [4]; 10000 nM) | cell viability (Vero E6 [5]; 1 nM) | cell viability (Vero E6 [5]; 10 nM) | cell viability (Vero E6 [5]; 100 nM) | cell viability (Vero E6 [5]; 1000 nM) | cell viability (Vero E6 [5]; 10000 nM) | relative viability EC50 (Calu-3 [6]) | relative viability EC50 (HepG2 [7]) | relative viability EC50 (U2OS [8]) | relative viability EC50 (Vero E6 [9]) | drug sensitivity score (Caco-2 [10]) | drug sensitivity score (Calu-3 [11]) | drug sensitivity score (HepG2 [12]) | drug sensitivity score (U2OS [13]) | drug sensitivity score (Vero E6 [14]) | relative viability EC50 (Caco-2 [15])
CN(Cc1cnc2nc(N)nc(N)c2n1)c1ccc(C(=O)N[C@@H](CCC(=O)O)C(=O)O)cc1 [methotrexate] | 98.3% | 99.6% | 97.6% | 67.1% | 66% | 104% | 94.3% | 93.9% | 95.8% | 96.5% | 94.3% | 103% | 105% | 21.8% | 18.6% | 103% | 98.2% | 98% | 92.1% | 97.2% | 103% | 99.1% | 96.1% | 14.7% | 14.3% | > 10 µM | 0.379 µM | > 10 µM | 0.284 µM | 6.1 | 0 | 14 | 0 | 16.1 | –
CC(=O)OC/C=C(C)/C=C/C=C(C)/C=C/C1=C(C)CCCC1(C)C [retinyl-acetate] | 112% | 99% | 104% | 95.9% | 114% | 93.7% | 90.4% | 112% | 90.7% | 93.3% | – | – | – | – | – | – | – | – | – | – | 103% | 103% | 102% | 98% | 102% | > 10 µM | – | – | > 10 µM | 0 | 0 | – | – | 0 | > 10 µM
CC[C@H]1OC(=O)C[C@@H](O)[C@H](C)[C@@H](O[C@@H]2O[C@H](C)C[C@H](N(C)C)[C@H]2O)[C@@H](CC=O)C[C@@H](C)C(=O)/C=C/[C@]2(C)O[C@H]2[C@@H]1C [rosamicin] | 94.6% | 102% | 101% | 100% | 71.5% | 101% | 84.5% | 101% | 107% | 87.2% | 87% | 106% | 98.4% | 103% | 28.9% | 100% | 94.2% | 98.8% | 99.4% | 37.1% | 94.7% | 102% | 92.9% | 97% | 90.9% | > 10 µM | 3.41 µM | 3.09 µM | > 10 µM | 1.2 | 0 | 3.7 | 3.5 | 0 | –
COc1cc(C[C@@H](CO)[C@H](CO)Cc2ccc(O)c(OC)c2)ccc1O [secoisolariciresinol-(-)] | 94.7% | 102% | 87.6% | 93% | 94.7% | 98.7% | 102% | 107% | 91.9% | 92.4% | – | – | – | – | – | 100% | 99.1% | 98.7% | 104% | 93.8% | 113% | 110% | 98.6% | 97.3% | 99.3% | > 10 µM | – | > 10 µM | > 10 µM | 0 | 0 | – | 0 | 0 | > 10 µM
Cn1nnc(-c2ccc(-c3ccc(N4C[C@H](COP(=O)(O)O)OC4=O)cc3F)cn2)n1 [tedizolid-phosphate] | 108% | 97.8% | 94.2% | 87.3% | 87.9% | 102% | 103% | 114% | 86.1% | 97.6% | 106% | 96.9% | 91% | 71.7% | 53.1% | 98.8% | 98.5% | 97.1% | 93.8% | 93.4% | 98.5% | 101% | 97.9% | 89.3% | 89.8% | > 10 µM | – | > 10 µM | > 10 µM | 0.8 | 0.9 | 6.1 | 0 | 0.2 | > 10 µM
Cc1cc2cc3c(C)cc(=O)oc3c(C)c2o1 [trioxsalen] | 111% | 99.6% | 91.3% | 92.4% | 80.5% | 105% | 96.3% | 106% | 120% | 108% | 104% | 88.8% | 94.7% | 86.1% | 65.8% | 103% | 105% | 101% | 106% | 99.6% | 97.4% | 96% | 99.5% | 97.5% | 96.3% | > 10 µM | – | > 10 µM | > 10 µM | 1 | 0 | 2.9 | 0 | 0 | > 10 µM
CCc1c(C(=O)C(N)=O)c2c(OCC(=O)O)cccc2n1Cc1ccccc1 [varespladib] | 106% | 90.1% | 94.4% | 93% | 106% | 104% | 99.2% | 91.2% | 110% | 101% | 93.3% | 105% | 96.2% | 101% | 97.7% | – | – | – | – | – | 104% | 102% | 107% | 103% | 99.5% | > 10 µM | > 10 µM | – | > 10 µM | 0 | 0 | 0 | – | 0 | > 10 µM
